This passage reports GI50 and TGI results from PubChem BioAssay (NCI).

Among the test systems are SW-620 colon; 786-0 renal; HCT-116 colon; SN12C renal; KM12 colon; HS 578T breast; RXF 393 renal; SK-MEL-5 melanoma; UO-31 renal; M14 melanoma.
What all share (experiment): inhibition of tumour cell growth, NCI panel, 48 h

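Exposure lasted 48 hours, with cells grown in 96-well plates and compounds tested at five concentrations. The concentration for 50% growth inhibition is given as GI50. TGI marks complete inhibition of growth.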

On to `C#CCCCCCC(=O)N[C@H]1C=C[C@@H]2/C=C(C)/C=C/[C@@H](C)[C@H]([C@H](C)[C@H](O)[C@@H](C)NC(C)=O)OC(=O)/C=C/C=C(C)\C=C\[C@]2(C)C1`, for which the GI50 with SW-620 colon was below 0.004 µM; in the assay with 786-0 renal, below 0.004 µM; in the assay with HCT-116 colon, below 0.004 µM; in the assay on SN12C renal, below 0.004 µM; with KM12 colon, 0.00501 µM; in the assay on HS 578T breast, 0.00422 µM. Moreover, the GI50 with RXF 393 renal, in the assay with SK-MEL-5 melanoma and in the assay with UO-31 renal was below 0.004 µM in each case. For the same molecule, the TGI with SW-620 colon, in the assay with 786-0 renal, in the assay on HCT-116 colon, with SN12C renal, in the assay on KM12 colon and in the assay with HS 578T breast was above 40 µM throughout. Further, the TGI came out at 2.48 µM in the assay with RXF 393 renal, 0.00803 µM in the assay with SK-MEL-5 melanoma and 8.95 µM in the assay with UO-31 renal.

As to `FC(F)(F)c1cccc(CNC2CCN(CCc3ccccc3)CC2)c1`, the GI50 was 36.9 µM in the assay on SW-620 colon; 14.6 µM with 786-0 renal; 22.1 µM in the assay on HCT-116 colon; 55.6 µM with SN12C renal; 22.5 µM in the assay with KM12 colon; 17.7 µM with HS 578T breast. Also, the GI50 in the assay with RXF 393 renal is 12.9 µM; in the assay on SK-MEL-5 melanoma, 12.3 µM; in the assay with UO-31 renal it was 17 µM. Further, the TGI is above 100 µM in the assay with SW-620 colon; 32.6 µM in the assay on 786-0 renal; 76.7 µM with HCT-116 colon; above 100 µM in the assay on SN12C renal; 56.6 µM in the assay with KM12 colon; 57.5 µM in the assay with HS 578T breast. The TGI in the assay with RXF 393 renal is 39.5 µM; in the assay with SK-MEL-5 melanoma, 24.7 µM; in the assay on UO-31 renal, above 100 µM.

With `CCN1CCN(CC(=O)Nc2nc3ccc(NCc4ccc(Br)cc4)cc3s2)CC1`, the GI50 with 786-0 renal is 1.85 µM; in the assay on HCT-116 colon it was 1.54 µM; in the assay with SN12C renal it was 2.73 µM; in the assay with KM12 colon, 3.25 µM; in the assay on M14 melanoma it was 1.72 µM; with HS 578T breast, 1.77 µM. Also, the values for the GI50 with RXF 393 renal, with SK-MEL-5 melanoma and with UO-31 renal were 1.63 µM, 1.68 µM and 1.78 µM, respectively. The TGI is 3.5 µM with 786-0 renal; 3.3 µM in the assay on HCT-116 colon; above 100 µM with SN12C renal; above 100 µM with KM12 colon; 3.63 µM with M14 melanoma; 4.81 µM in the assay with HS 578T breast. Further, the TGI was found to be 3.25 µM with RXF 393 renal, 3.08 µM in the assay with SK-MEL-5 melanoma and 3.4 µM with UO-31 renal.

As for `O=C(NO)c1ccc(CNc2cccc3nc(C4CC4)n(-c4ccccc4)c(=O)c23)cc1`, the GI50 with SW-620 colon was 1.81 µM; in the assay on 786-0 renal, 2.18 µM; with SN12C renal, 2.4 µM; with M14 melanoma it was 1.91 µM; in the assay on HS 578T breast, 2.5 µM; in the assay on RXF 393 renal, 1.42 µM. The figures for the GI50 with SK-MEL-5 melanoma and in the assay on UO-31 renal were 2.15 µM and 1.45 µM, respectively. Moreover, the TGI is 6.01 µM in the assay with SW-620 colon; 5.2 µM in the assay on 786-0 renal; 10.9 µM with SN12C renal; 4.14 µM in the assay with M14 melanoma; 20.6 µM in the assay with HS 578T breast; 3.14 µM in the assay with RXF 393 renal. The TGI in the assay on SK-MEL-5 melanoma is 4.8 µM; in the assay with UO-31 renal it was 2.96 µM.

Regarding `COc1cc2c(Oc3ccc(-c4cnc(Nc5ccc(F)cc5)n(C)c4=O)cc3F)ccnc2cc1OCCCN1CCOCC1`, the GI50 in the assay with 786-0 renal was 1.54 µM; with HCT-116 colon, 1.19 µM; in the assay with SN12C renal it was 0.528 µM; in the assay with M14 melanoma it was 0.442 µM; in the assay with HS 578T breast, 0.933 µM; in the assay with RXF 393 renal, 0.759 µM. Further, the figures for the GI50 in the assay with SK-MEL-5 melanoma and with UO-31 renal were 1.45 µM and 0.906 µM, respectively. Moreover, the TGI was 3.1 µM in the assay with 786-0 renal; 2.51 µM with HCT-116 colon; 2.27 µM in the assay on SN12C renal; 1.82 µM in the assay with M14 melanoma; 3.4 µM in the assay with HS 578T breast; 2.04 µM with RXF 393 renal. In addition, the TGI is 2.77 µM in the assay on SK-MEL-5 melanoma and 2.21 µM with UO-31 renal.

Take `OC[C@H]1C[C@](O)(c2ccc(F)cc2)[C@@H](c2ccc(F)cc2)O1`: the GI50 is above 100 µM with SW-620 colon; above 100 µM in the assay with 786-0 renal; 90.5 µM in the assay on HCT-116 colon; above 100 µM with SN12C renal; above 100 µM with KM12 colon; 44.2 µM with HS 578T breast. Further, the GI50 in the assay on RXF 393 renal is 52.7 µM; in the assay with SK-MEL-5 melanoma, above 100 µM; with UO-31 renal, above 100 µM. Also, the TGI in the assay on SW-620 colon, in the assay with 786-0 renal, in the assay with HCT-116 colon, in the assay on SN12C renal, in the assay with KM12 colon and with HS 578T breast was above 100 µM each time. For the same molecule, the TGI in the assay with RXF 393 renal, with SK-MEL-5 melanoma and with UO-31 renal was above 100 µM throughout.
